One data set can be described thus: Toxicity tests. The class given is in vivo. As to conditions: rats/mice; form not stated. The text has this:
(§1) Toxicity and Activity Tests

The test system of data set [1] is Entamoeba histolytica HM-1:IMSS. Kind of data set: Cytotoxicity of alkylphosphocholines on amebae (Trypan blue count, Probit). The class given is cell-based. As to conditions: strain HM-1:IMSS, read-out: ED50 (the source's name). The protocol:
(§2) Entamoeba histolytica SFL-3 and HM-1: IMSS (American Type Culture collection, order number ATCC 30459), pathogenic amebae of zymodeme II, were cultured, at 37° C., in TYI-S-33 medium (Diamond et al., Trans. Roy. Soc. Trop. Med. Hyg. 72: 431-432 (1978)) containing 10% bovine serum. The cultures of SFL-3 were kept in 100 ml glass bottles while the cultures of HM-1:IMSS were kept in 50 ml tissue culture flasks.
(§3) 38 h cultures of E histolytica were used for measuring the cytotoxicity of the alkylphosphocholines. The amebae were released from the culture vessels by shaking, centrifuged down for 3 min at 2 000 revolutions per minute and 4° C. in a Heraeus Minifuge RF, resuspended in 20 ml of TYI-S-33 medium and counted in a hemocytometer chamber.
(§4) For each measurement, in each case 8-10×10^5 amebae were provided in 12 ml of medium in Pyrex tubes fitted with a screw closure and the alkylphosphocholine was added in a volume of 660 μl. […] (w/v) ethanol in double-distilled water was used for dissolving hexadecylphosphocholine and octadecylphosphocholine, while double-distilled water on its own was used for all the other substances and the liposomal preparations. 5% ethanol or double-distilled water was correspondingly added to the control cultures. The concentrations of alkylphosphocholines employed were 100 μM, 50 μM, 20 μM, 10 μM and 5 μM. Six cultures were in each case prepared for each of the concentrations.
(§5) The effect of the alkylphosphocholines was determined after 24 h and after 48 h. For this, in each case three of the cultures were shaken up and transferred into in each case three plastic centrifuge tubes. The amebae were centrifuged down for 5 min at 2 200 rpm and 4° C. and suspended in a final volume of 1 ml in a 1:1 mixture of Trypan blue (Sigma) and PBS. Each of the samples was then counted in the hemocytometer and the number of living and dead, stained blue due to having taken up the die, amebae was recorded.
(§6) The results were analyzed using the “Probit” program (Wernsdorfer and Wernsdorfer, Mitt. Österr. Ges. Tropenmed. Parasitol. 17:221-228 (1995)).
(§7) The tests were carried out as described above. The E. histolytica strains SFL-3 and HM-1:IMSS were tested. In each case six cultures were prepared for each concentration of alkylphosphocholine in pure or liposomal form. Three of the cultures were counted after […] and three further cultures were counted after 48 h. In each case two independent experiments were carried out for each of the two strains.

In data set [2] the test system is Entamoeba histolytica SFL-3. The data set is described as above. As to conditions: read-out: ED50 (the source's name). The data set is classed as cell-based. The protocol:
as §2, §3, §4, §5, §6, §7

A short description of data set [3]: Activity tests: necessary administration quantities. The class given is in vivo. As to conditions: Form: Free (oral); rats/mice.
Text: as §1

The structures appear in SMILES notation. Where two headings read alike, the source gives them in different places.

As for `CCCCCCCCCCCCCCCCOP(=O)([O-])OCC[N+](C)(C)C` [APC 1, hexadecylphosphocholine], in the data set “Toxicity tests”, the Toxicity was 90 µmol. Moreover, the EC50 in data set [1] (day 1 (24 h)) was determined as 94 µM; in data set [1] (day 2 (48 h)), 83 µM; in data set [2] (strain SFL-3, day 1 (24 h)), 88 µM; in data set [2] (strain SFL-3, day 2 (48 h)) it was 50 µM. In data set [3], this molecule had a Necessary administration quantities of 60 µmol.
As to `CCCCCCCCCCCCCCCCCCOP(=O)([O-])OCC[N+](C)(C)C` [APC 2, octadecylphosphocholine], the EC50 stood at 80 µM in data set [1] (day 1 (24 h)); 70 µM in data set [1] (day 2 (48 h)); 36 µM in data set [2] (strain SFL-3, day 1 (24 h)); 24 µM in data set [2] (strain SFL-3, day 2 (48 h)).
Consider `CCCCCCCC/C=C\CCCCCCCCOP(=O)([O-])OCC[N+](C)(C)C` [APC 9, oleylphosphocholine], for which the EC50 in data set [1] (day 1 (24 h)) turned out to be 121 µM; in data set [1] (day 2 (48 h)), 80 µM; in data set [2] (strain SFL-3, day 1 (24 h)) it was 32 µM; in data set [2] (strain SFL-3, day 2 (48 h)), 16 µM. Also, in data set [3], the Necessary administration quantities turned out to be 20 µmol.
With `CCCCCCCC/C=C\CCCCCCCCCOP(=O)([O-])OCC[N+](C)(C)C` [APC 10, (Z)-10-nonadecenylphosphocholine], the EC50 is 112 µM in data set [1] (day 1 (24 h)); 87 µM in data set [1] (day 2 (48 h)); 24 µM in data set [2] (strain SFL-3, day 1 (24 h)); 20 µM in data set [2] (strain SFL-3, day 2 (48 h)).
Molecule `CCCCCCCC/C=C\CCCCCCCCCCCCOP(=O)([O-])OCC[N+](C)(C)C` [Erucyl-PC] came in with a Necessary administration quantities in data set [3] of 100 µmol.
Still for that read-out and setting: with `CCCCCCCCCCCCCCCCCCCOP(=O)([O-])OCC[N+](C)(C)C` [Nonadecyl-PC] the figure was 20 µmol.

The values are drawn from patent US20030199476A1, “Medicament for the stimulation of leucopoiesis and treatment of tumour and protozoan diseases acarinosis and arthropod-borne diseases and a method for production thereof” (priority 2000, published 2003).
